# Data reported in PubChem BioAssay (NCI).
#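 Following 48 hours of exposure in 96-well plates, responses at five concentrations were used to interpolate endpoints linearly. Abbreviation: GI50, concentration required for 50% inhibition of growth. TGI marks complete inhibition of growth.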
# What was measured:
# Assay in all cases: inhibition of tumour cell growth, NCI panel, 48 h
# A498 renal = test system: A498 renal
# A549 NSCLC = test system: A549 NSCLC
# ACHN renal = test system: ACHN renal
# CAKI-1 renal = test system: CAKI-1 renal
# CCRF-CEM leukemia = test system: CCRF-CEM leukemia
# COLO 205 colon = test system: COLO 205 colon
# DU-145 prostate = test system: DU-145 prostate
# EKVX NSCLC = test system: EKVX NSCLC
# HCC-2998 colon = test system: HCC-2998 colon
# HCT-15 colon = test system: HCT-15 colon
# HL-60(TB) leukemia = test system: HL-60(TB) leukemia
# HOP-62 NSCLC = test system: HOP-62 NSCLC
# HOP-92 NSCLC = test system: HOP-92 NSCLC
# HS 578T breast = test system: HS 578T breast
# HT29 colon = test system: HT29 colon
# IGROV1 ovarian = test system: IGROV1 ovarian
# K-562 leukemia = test system: K-562 leukemia
# KM12 colon = test system: KM12 colon
# LOX IMVI melanoma = test system: LOX IMVI melanoma
# MALME-3M melanoma = test system: MALME-3M melanoma
# MCF7 breast = test system: MCF7 breast
# MDA-MB-231 breast = test system: MDA-MB-231 breast
# MDA-MB-435 = test system: MDA-MB-435
# MOLT-4 leukemia = test system: MOLT-4 leukemia
# NCI-H226 lung = test system: NCI-H226 lung
# NCI-H23 lung = test system: NCI-H23 lung
# NCI-H460 lung = test system: NCI-H460 lung
# NCI-H522 lung = test system: NCI-H522 lung
# NCI/ADR-RES ovarian = test system: NCI/ADR-RES ovarian
# OVCAR-3 ovarian = test system: OVCAR-3 ovarian
# OVCAR-4 ovarian = test system: OVCAR-4 ovarian
# OVCAR-5 ovarian = test system: OVCAR-5 ovarian
# OVCAR-8 ovarian = test system: OVCAR-8 ovarian
# PC-3 prostate = test system: PC-3 prostate
# RPMI-8226 leukemia = test system: RPMI-8226 leukemia
# RXF 393 renal = test system: RXF 393 renal
# SF-268 CNS = test system: SF-268 CNS
# SF-295 CNS = test system: SF-295 CNS
# SF-539 CNS = test system: SF-539 CNS
# SK-MEL-2 melanoma = test system: SK-MEL-2 melanoma
# SK-MEL-28 melanoma = test system: SK-MEL-28 melanoma
# SK-MEL-5 melanoma = test system: SK-MEL-5 melanoma
# SK-OV-3 ovarian = test system: SK-OV-3 ovarian
# SN12C renal = test system: SN12C renal
# SNB-19 CNS = test system: SNB-19 CNS
# SNB-75 CNS = test system: SNB-75 CNS
# SR leukemia = test system: SR leukemia
# SW-620 colon = test system: SW-620 colon
# T-47D breast = test system: T-47D breast
# TK-10 renal = test system: TK-10 renal
# U251 CNS = test system: U251 CNS
# UACC-257 melanoma = test system: UACC-257 melanoma
# UACC-62 melanoma = test system: UACC-62 melanoma
# UO-31 renal = test system: UO-31 renal
# HCT-116 colon = test system: HCT-116 colon
# M14 melanoma = test system: M14 melanoma
compound,measurement,setting,value
COc1ccc(/C(=C2/O[C@@H]([C@H]3COC(C)(C)O3)[C@H]3OC(C)(C)O[C@@H]23)c2cc(OC)c(OC)c(OC)c2)cc1O,GI50,A498 renal,32.1 µM
same,TGI,A498 renal,97.4 µM
same,GI50,A549 NSCLC,22.7 µM
same,TGI,A549 NSCLC,> 100 µM
same,GI50,ACHN renal,15.4 µM
same,TGI,ACHN renal,> 100 µM
same,GI50,CAKI-1 renal,14.8 µM
same,TGI,CAKI-1 renal,42.2 µM
same,GI50,CCRF-CEM leukemia,5.45 µM
same,TGI,CCRF-CEM leukemia,> 100 µM
same,GI50,COLO 205 colon,27.3 µM
same,TGI,COLO 205 colon,63.7 µM
same,GI50,DU-145 prostate,3.93 µM
same,TGI,DU-145 prostate,> 100 µM
same,GI50,EKVX NSCLC,37.4 µM
same,TGI,EKVX NSCLC,> 100 µM
same,GI50,HCC-2998 colon,31.1 µM
same,TGI,HCC-2998 colon,80.4 µM
same,GI50,HCT-15 colon,4.06 µM
same,TGI,HCT-15 colon,39.7 µM
same,GI50,HL-60(TB) leukemia,6.48 µM
same,TGI,HL-60(TB) leukemia,56.8 µM
same,GI50,HOP-62 NSCLC,10.9 µM
same,TGI,HOP-62 NSCLC,34.7 µM
same,GI50,HOP-92 NSCLC,4 µM
same,TGI,HOP-92 NSCLC,38.3 µM
same,GI50,HS 578T breast,6.97 µM
same,TGI,HS 578T breast,67.9 µM
same,GI50,HT29 colon,26.5 µM
same,TGI,HT29 colon,52 µM
same,GI50,IGROV1 ovarian,45.1 µM
same,TGI,IGROV1 ovarian,> 100 µM
same,GI50,K-562 leukemia,6.28 µM
same,TGI,K-562 leukemia,> 100 µM
same,GI50,KM12 colon,4.1 µM
same,TGI,KM12 colon,17.8 µM
same,GI50,LOX IMVI melanoma,5.93 µM
same,TGI,LOX IMVI melanoma,22.8 µM
same,GI50,MALME-3M melanoma,9.96 µM
same,TGI,MALME-3M melanoma,> 100 µM
same,GI50,MCF7 breast,12.3 µM
same,TGI,MCF7 breast,> 100 µM
same,GI50,MDA-MB-231 breast,9.71 µM
same,TGI,MDA-MB-231 breast,50.1 µM
same,GI50,MDA-MB-435,2.15 µM
same,TGI,MDA-MB-435,5.54 µM
same,GI50,MOLT-4 leukemia,24.2 µM
same,TGI,MOLT-4 leukemia,> 100 µM
same,GI50,NCI-H226 lung,64.7 µM
same,TGI,NCI-H226 lung,> 100 µM
same,GI50,NCI-H23 lung,21.8 µM
same,TGI,NCI-H23 lung,74.9 µM
same,GI50,NCI-H460 lung,29.3 µM
same,TGI,NCI-H460 lung,> 100 µM
same,GI50,NCI-H522 lung,2.95 µM
same,TGI,NCI-H522 lung,7.54 µM
same,GI50,NCI/ADR-RES ovarian,3.11 µM
same,TGI,NCI/ADR-RES ovarian,8.85 µM
same,GI50,OVCAR-3 ovarian,4.84 µM
same,TGI,OVCAR-3 ovarian,43.3 µM
same,GI50,OVCAR-4 ovarian,37.5 µM
same,TGI,OVCAR-4 ovarian,> 100 µM
same,GI50,OVCAR-5 ovarian,59.6 µM
same,TGI,OVCAR-5 ovarian,> 100 µM
same,GI50,OVCAR-8 ovarian,8.56 µM
same,TGI,OVCAR-8 ovarian,> 100 µM
same,GI50,PC-3 prostate,4.12 µM
same,TGI,PC-3 prostate,> 100 µM
same,GI50,RPMI-8226 leukemia,4.82 µM
same,TGI,RPMI-8226 leukemia,34 µM
same,GI50,RXF 393 renal,2.35 µM
same,TGI,RXF 393 renal,5.07 µM
same,GI50,SF-268 CNS,7.95 µM
same,TGI,SF-268 CNS,53.6 µM
same,GI50,SF-295 CNS,18.7 µM
same,TGI,SF-295 CNS,43.9 µM
same,GI50,SF-539 CNS,3.15 µM
same,TGI,SF-539 CNS,8.75 µM
same,GI50,SK-MEL-2 melanoma,3.26 µM
same,TGI,SK-MEL-2 melanoma,8.44 µM
same,GI50,SK-MEL-28 melanoma,10.6 µM
same,TGI,SK-MEL-28 melanoma,> 100 µM
same,GI50,SK-MEL-5 melanoma,4.12 µM
same,TGI,SK-MEL-5 melanoma,15 µM
same,GI50,SK-OV-3 ovarian,12.6 µM
same,TGI,SK-OV-3 ovarian,91.7 µM
same,GI50,SN12C renal,8.9 µM
same,TGI,SN12C renal,> 100 µM
same,GI50,SNB-19 CNS,5.33 µM
same,TGI,SNB-19 CNS,> 100 µM
same,GI50,SNB-75 CNS,6.36 µM
same,TGI,SNB-75 CNS,> 100 µM
same,GI50,SR leukemia,6.1 µM
same,TGI,SR leukemia,> 100 µM
same,GI50,SW-620 colon,7.28 µM
same,TGI,SW-620 colon,> 100 µM
same,GI50,T-47D breast,44.3 µM
same,TGI,T-47D breast,> 100 µM
same,GI50,TK-10 renal,36.6 µM
same,TGI,TK-10 renal,86.3 µM
same,GI50,U251 CNS,5 µM
same,TGI,U251 CNS,43.1 µM
same,GI50,UACC-257 melanoma,39.4 µM
same,TGI,UACC-257 melanoma,> 100 µM
same,GI50,UACC-62 melanoma,22.9 µM
same,TGI,UACC-62 melanoma,57.6 µM
same,GI50,UO-31 renal,21.8 µM
same,TGI,UO-31 renal,70.4 µM
CN(C)CC(=O)Nc1ccc(Cn2nnc3c2C(=O)c2nnn(Cc4ccc(NC(=O)CN(C)C)cc4)c2C3=O)cc1,GI50,A498 renal,1.07 µM
same,TGI,A498 renal,2.29 µM
same,GI50,ACHN renal,0.335 µM
same,TGI,ACHN renal,1.23 µM
same,GI50,CAKI-1 renal,2.59 µM
same,TGI,CAKI-1 renal,> 100 µM
same,GI50,CCRF-CEM leukemia,0.204 µM
same,TGI,CCRF-CEM leukemia,0.747 µM
same,GI50,COLO 205 colon,0.087 µM
same,TGI,COLO 205 colon,0.253 µM
same,GI50,DU-145 prostate,0.175 µM
same,TGI,DU-145 prostate,0.337 µM
same,GI50,HCC-2998 colon,0.162 µM
same,TGI,HCC-2998 colon,0.37 µM
same,GI50,HCT-116 colon,0.0843 µM
same,TGI,HCT-116 colon,0.275 µM
same,GI50,HL-60(TB) leukemia,0.074 µM
same,TGI,HL-60(TB) leukemia,0.5 µM
same,GI50,HS 578T breast,0.337 µM
same,TGI,HS 578T breast,2.06 µM
same,GI50,K-562 leukemia,0.293 µM
same,TGI,K-562 leukemia,> 100 µM
same,GI50,M14 melanoma,0.14 µM
same,TGI,M14 melanoma,0.284 µM
same,GI50,MALME-3M melanoma,0.115 µM
same,TGI,MALME-3M melanoma,0.266 µM
same,GI50,MDA-MB-435,0.0708 µM
same,TGI,MDA-MB-435,0.198 µM
same,GI50,NCI-H226 lung,0.209 µM
same,TGI,NCI-H226 lung,0.444 µM
same,GI50,NCI-H23 lung,0.192 µM
same,TGI,NCI-H23 lung,0.488 µM
same,GI50,NCI-H460 lung,0.167 µM
same,TGI,NCI-H460 lung,1.2 µM
same,GI50,NCI/ADR-RES ovarian,> 100 µM
same,TGI,NCI/ADR-RES ovarian,> 100 µM
same,GI50,OVCAR-3 ovarian,0.0318 µM
same,TGI,OVCAR-3 ovarian,0.132 µM
same,GI50,OVCAR-4 ovarian,0.0473 µM
same,TGI,OVCAR-4 ovarian,0.179 µM
same,GI50,OVCAR-5 ovarian,0.234 µM
same,TGI,OVCAR-5 ovarian,0.578 µM
same,GI50,OVCAR-8 ovarian,0.228 µM
same,TGI,OVCAR-8 ovarian,0.679 µM
same,GI50,PC-3 prostate,0.253 µM
same,TGI,PC-3 prostate,0.825 µM
same,GI50,RPMI-8226 leukemia,0.225 µM
same,TGI,RPMI-8226 leukemia,0.783 µM
same,GI50,SF-539 CNS,0.197 µM
same,TGI,SF-539 CNS,0.502 µM
same,GI50,SK-MEL-5 melanoma,0.151 µM
same,TGI,SK-MEL-5 melanoma,0.286 µM
same,GI50,SK-OV-3 ovarian,0.0949 µM
same,TGI,SK-OV-3 ovarian,0.222 µM
same,GI50,SNB-75 CNS,0.172 µM
same,TGI,SNB-75 CNS,0.342 µM
same,GI50,T-47D breast,0.166 µM
same,TGI,T-47D breast,0.449 µM
same,GI50,TK-10 renal,2.86 µM
same,TGI,TK-10 renal,7.58 µM
same,GI50,U251 CNS,0.183 µM
same,TGI,U251 CNS,0.361 µM
same,GI50,UACC-257 melanoma,0.172 µM
same,TGI,UACC-257 melanoma,0.339 µM
same,GI50,UACC-62 melanoma,0.201 µM
same,TGI,UACC-62 melanoma,0.432 µM
